Test results taken from ChEMBL document CHEMBL5257109, “Development of actein derivatives as potent anti-triple negative breast cancer agents” (Bioorg Med Chem Lett, 2023).
Activity calls are given as the source filed them. No cut-off for these calls is given here.

Experiments:
HCC1806 [1] = assay: Antiproliferative activity against human HCC1806 cells assessed as inhibition of cell growth incubated for 36 hrs by SRB assay; type: functional, cell-based; settings: for IC50: HCC1806, 36 h
HCC1806 [2] = assay: Antiproliferative activity against human HCC1806 cells assessed as inhibition of cell growth at 20 uM incubated for 36 hrs by SRB assay relative to control; type: functional
MDA-MB-231 [3] = assay: Antiproliferative activity against human MDA-MB-231 cells assessed as inhibition of cell growth incubated for 36 hrs by SRB assay; type: functional, cell-based; settings: for IC50: MDA-MB-231, 36 h
MDA-MB-231 [4] = assay: Antiproliferative activity against human MDA-MB-231 cells assessed as inhibition of cell growth at 20 uM incubated for 36 hrs by SRB assay relative to control; type: functional
MDA-MB-231 [5] = assay: Antiproliferative activity against human MDA-MB-231 cells assessed as inhibition of cell growth; type: functional, cell-based
MCF7 = assay: Antiproliferative activity against human MCF7 cells assessed as inhibition of cell growth incubated for 96 hrs by coulter counter analysis; type: functional, cell-based; settings: MCF7, 96 h
MDA-MB-231 [6] = assay: Antiproliferative activity against human MDA-MB-231 cells overexpressing ERnegative and […] assessed as inhibition of cell growth incubated for 96 hrs by coulter counter analysis; type: functional, cell-based; settings: MDA-MB-231, 96 h
HCC1806 [7] = assay: Induction of cell death in human HCC1806 cells assessed as activation of p38 protein incubated for 36 hrs by Western blot analysis; type: functional, cell-based; settings: dose 10-20 µM
HCC1806 [8] = assay: Induction of cell cycle arrest in human HCC1806 cells assessed as increase in S phase cells at 10 uM incubated for 36 hrs by PI staining based flow cytometric analysis; type: functional
HCC1806 [9] = assay: Induction of cell cycle arrest in human HCC1806 cells assessed as decrease in G2/M phase cells at 10 uM incubated for 36 hrs by PI staining based flow cytometric analysis; type: functional
HCC1806 [10] = assay: Induction of cell death in human HCC1806 cells assessed as increase in p21 expression incubated for 36 hrs by Western blot analysis; type: functional, cell-based; settings: dose 10-20 µM

Row | Compound | IC50 (HCC1806 [1]) [µM] | inhibition at 20 µM (HCC1806 [2]) [%] | IC50 (MDA-MB-231 [3]) [µM] | inhibition at 20 µM (MDA-MB-231 [4]) [%] | also measured
1 | CC(=O)O[C@@H]1[C@@H](OC(C)=O)[C@H](O[C@H]2CC[C@]34C[C@]35CC(=O)[C@]3(C)[C@H]6[C@H](C)C[C@]7(O[C@@H](OC(=O)CCC(=O)O)[C@@]8(C)O[C@@H]78)O[C@H]6C[C@@]3(C)[C@@H]5CC[C@H]4C2(C)C)OC[C@H]1OC(C)=O | 10.7 | > 50 | 12.1 | > 50 | 
2 | CC(=O)O[C@@H]1[C@@H](OC(C)=O)[C@H](O[C@H]2CC[C@]34C[C@]35C[C@@H](OC(C)=O)[C@]3(C)[C@H]6[C@H](C)C[C@]7(OC(O)[C@@]8(C)O[C@@H]78)O[C@H]6C[C@@]3(C)[C@@H]5CC[C@H]4C2(C)C)OC[C@H]1OC(C)=O (stereo not given in full) | 3.42 | > 50 | > 20 | > 50 | 
3 | CC(=O)O[C@@H]1[C@@H](OC(C)=O)[C@H](O[C@H]2CC[C@]34C[C@]35C=C[C@]3(C)[C@H]6[C@H](C)C[C@]7(OC(=O)[C@@]8(C)O[C@@H]78)O[C@H]6C[C@@]3(C)[C@@H]5CC[C@H]4C2(C)C)OC[C@H]1OC(C)=O | 13.6 | > 50 | > 20 | > 50 | 
4 | CC(=O)OC1O[C@]2(C[C@@H](C)[C@H]3[C@H](C[C@@]4(C)[C@@H]5CC[C@H]6C(C)(C)[C@@H](O[C@@H]7OC[C@@H](OC(C)=O)[C@H](OC(C)=O)[C@H]7OC(C)=O)CC[C@@]67C[C@@]57C[C@@H](OC(C)=O)[C@]34C)O2)[C@@H]2O[C@]12C (stereo not given in full) | 8.21 | > 50 | > 20 | > 50 | 
5 | CC(=O)O[C@@H]1C[C@@]23C[C@@]24CC[C@H](O[C@@H]2OC[C@@H](O)[C@H](O)[C@H]2O)C(C)(C)[C@@H]4CC[C@H]3[C@]2(C)C[C@@H]3O[C@]4(C[C@@H](C)[C@@H]3[C@@]12C)O[C@H](O)[C@@]1(C)O[C@@H]41 [ACTEIN] | > 20 |  | > 20 |  | IC50 (MDA-MB-231 [5]): 60 µM; IC50 (MCF7): 14 µM; IC50 (MDA-MB-231 [6]): 74 µM
6 | C[C@@H]1C[C@]2(OC(O)[C@@]3(C)O[C@@H]23)O[C@H]2C[C@@]3(C)[C@@H]4CC[C@H]5C(C)(C)[C@@H](O[C@@H]6OC[C@@H](O)[C@H](O)[C@H]6O)CC[C@@]56C[C@@]46C[C@@H](O)[C@]3(C)[C@@H]12 (stereo not given in full) | > 20 |  | > 20 |  | 
7 | CC(=O)O[C@@H]1[C@@H](OC(C)=O)[C@H](O[C@H]2CC[C@]34C[C@]35CC(=O)[C@]3(C)[C@H]6[C@H](C)C[C@]7(OC(OC(=O)c8ccccc8)[C@@]8(C)O[C@@H]78)O[C@H]6C[C@@]3(C)[C@@H]5CC[C@H]4C2(C)C)OC[C@H]1OC(C)=O (stereo not given in full) |  |  |  |  | Activity (HCC1806 [1]): inactive; Activity (MDA-MB-231 [3]): inactive
8 | CC(=O)O[C@@H]1[C@@H](OC(C)=O)[C@H](O[C@H]2CC[C@]34C[C@]35C[C@@H](OC(C)=O)[C@]3(C)[C@H]6[C@H](C)C[C@]7(OC(=O)[C@@]8(C)O[C@@H]78)O[C@H]6C[C@@]3(C)[C@@H]5CC[C@H]4C2(C)C)OC[C@H]1OC(C)=O | > 20 |  | > 20 |  | 
9 | CC(=O)O[C@@H]1[C@@H](OC(C)=O)[C@H](O[C@H]2CC[C@]34C[C@]35C[C@@H](OC(C)=O)[C@]3(C)[C@H]6[C@H](C)C[C@]7(O[C@@H](OC(=O)CCC(=O)O)[C@@]8(C)O[C@@H]78)O[C@H]6C[C@@]3(C)[C@@H]5CC[C@H]4C2(C)C)OC[C@H]1OC(C)=O | 2.78 | > 50 | 9.11 | > 50 | Activity (HCC1806 [7]): Dose-Dependent Effect; Activity (HCC1806 [8]): Active; Activity (HCC1806 [9]): Active; Activity (HCC1806 [10]): Dose-Dependent Effect
10 | COC1O[C@]2(C[C@@H](C)[C@H]3[C@H](C[C@@]4(C)[C@@H]5CC[C@H]6C(C)(C)[C@@H](O[C@@H]7OC[C@@H](O)[C@H](O)[C@H]7O)CC[C@@]67C[C@@]57C[C@@H](OC(C)=O)[C@]34C)O2)[C@@H]2O[C@]12C (stereo not given in full) | > 20 |  | > 20 |  | 
11 | C[C@@H]1C[C@]2(OC(=O)[C@@]3(C)O[C@@H]23)O[C@H]2C[C@@]3(C)[C@@H]4CC[C@H]5C(C)(C)[C@@H](O[C@@H]6OC[C@@H](O)[C@H](O)[C@H]6O)CC[C@@]56C[C@@]46C=C[C@]3(C)[C@@H]12 | > 20 |  | > 20 |  | 
12 | CC(=O)O[C@@H]1[C@@H](OC(C)=O)[C@H](O[C@H]2CC[C@]34C[C@]35CC(=O)[C@]3(C)[C@H]6[C@H](C)C[C@]7(OC(O)[C@@]8(C)O[C@@H]78)O[C@H]6C[C@@]3(C)[C@@H]5CC[C@H]4C2(C)C)OC[C@H]1OC(C)=O (stereo not given in full) | 8.8 | > 50 | 13 | > 50 | 
13 | CC(=O)O[C@@H]1[C@@H](OC(C)=O)[C@H](O[C@H]2CC[C@]34C[C@]35C[C@@H](OC(C)=O)[C@]3(C)[C@H]6[C@H](C)C[C@]7(O[C@H](OC(=O)c8ccccc8)[C@@]8(C)O[C@@H]78)O[C@H]6C[C@@]3(C)[C@@H]5CC[C@H]4C2(C)C)OC[C@H]1OC(C)=O | > 20 |  | > 20 |  | 
14 | CC(=O)OC1O[C@]2(C[C@@H](C)[C@H]3[C@H](C[C@@]4(C)[C@@H]5CC[C@H]6C(C)(C)[C@@H](O[C@@H]7OC[C@@H](OC(C)=O)[C@H](OC(C)=O)[C@H]7OC(C)=O)CC[C@@]67C[C@@]57CC(=O)[C@]34C)O2)[C@@H]2O[C@]12C (stereo not given in full) |  |  |  |  | Activity (HCC1806 [1]): inactive; Activity (MDA-MB-231 [3]): inactive
15 | CC(=O)O[C@@H]1[C@@H](OC(C)=O)[C@H](O[C@H]2CC[C@]34C[C@]35C[C@H](F)[C@]3(C)[C@H]6[C@H](C)C[C@]7(OC(=O)[C@@]8(C)O[C@@H]78)O[C@H]6C[C@@]3(C)[C@@H]5CC[C@H]4C2(C)C)OC[C@H]1OC(C)=O | > 20 |  | > 20 |  | 
16 | CC(=O)O[C@@H]1O[C@]2(C[C@@H](C)[C@H]3[C@H](C[C@@]4(C)[C@@H]5CC[C@H]6C(C)(C)[C@@H](O[C@@H]7OC[C@@H](O)[C@H](O)[C@H]7O)CC[C@@]67C[C@@]57C[C@@H](OC(C)=O)[C@]34C)O2)[C@@H]2O[C@]12C | > 20 |  | > 20 |  | 
17 | CC(=O)O[C@@H]1C[C@@]23C[C@@]24CC[C@H](O[C@@H]2OC[C@@H](O)[C@H](O)[C@H]2O)C(C)(C)[C@@H]4CC[C@H]3[C@]2(C)C[C@@H]3O[C@]4(C[C@@H](C)[C@@H]3[C@@]12C)O[C@@H](OC(=O)CCC(=O)O)[C@@]1(C)O[C@@H]41 | > 20 |  | > 20 |  | 
18 | COc1ccc(C(=O)O[C@H]2O[C@]3(C[C@@H](C)[C@H]4[C@H](C[C@@]5(C)[C@@H]6CC[C@H]7C(C)(C)[C@@H](O[C@@H]8OC[C@@H](OC(C)=O)[C@H](OC(C)=O)[C@H]8OC(C)=O)CC[C@@]78C[C@@]68C[C@@H](OC(C)=O)[C@]45C)O3)[C@@H]3O[C@]23C)cc1 | > 20 |  | > 20 |  | 
